{"source": "the kinase profiling compilation of Christmann-Franck et al. (2016)", "assay_in_all_cases": "radiometric filter-binding kinase assay", "key": {"ABL1 (human)": {"target": "ABL1 (human) (UniProt P00519)"}, "[1]": {"test_system": "AKT1 (human), P31749 [S473D]"}, "[2]": {"test_system": "AKT2 (human), P31751 [S474D]"}, "AURKA (human)": {"target": "AURKA (human) (UniProt O14965)"}, "BRSK1 (human)": {"target": "BRSK1 (human) (UniProt Q8TDC3)"}, "BTK (human)": {"target": "BTK (human) (UniProt Q06187)"}, "CHEK1 (human)": {"target": "CHEK1 (human) (UniProt O14757)"}, "CaMK1 (human)": {"target": "CaMK1 (human) (UniProt Q14012)"}, "DYRK1A (human)": {"target": "DYRK1A (human) (UniProt Q13627)", "conditions": "compound 1.0 µM"}, "DYRK3 (human)": {"target": "DYRK3 (human) (UniProt O43781)"}, "EEF2K (human)": {"target": "EEF2K (human) (UniProt O00418)"}, "EIF2AK3 (human)": {"target": "EIF2AK3 (human) (UniProt Q9NZJ5)"}, "EPHB2 (human)": {"target": "EPHB2 (human) (UniProt P29323)"}, "GCK (human)": {"target": "GCK (human) (UniProt Q12851)"}, "MAP3K5 (human)": {"target": "MAP3K5 (human) (UniProt Q99683)", "conditions": "compound 10.0 µM"}, "MAP3K9 (human)": {"target": "MAP3K9 (human) (UniProt P80192)"}, "MAPK1 (human)": {"target": "MAPK1 (human) (UniProt P28482)", "sequence (P28482 whole entry, looked up)": "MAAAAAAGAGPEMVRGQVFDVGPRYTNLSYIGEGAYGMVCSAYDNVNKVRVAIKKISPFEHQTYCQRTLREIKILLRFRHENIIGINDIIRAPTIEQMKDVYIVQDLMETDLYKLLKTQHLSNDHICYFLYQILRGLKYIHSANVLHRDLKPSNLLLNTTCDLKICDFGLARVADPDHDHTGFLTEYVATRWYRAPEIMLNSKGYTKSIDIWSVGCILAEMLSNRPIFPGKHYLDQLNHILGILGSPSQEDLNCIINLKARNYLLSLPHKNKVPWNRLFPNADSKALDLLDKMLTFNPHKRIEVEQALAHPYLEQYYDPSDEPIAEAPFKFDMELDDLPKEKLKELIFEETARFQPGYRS"}, "MAPK10 (human)": {"target": "MAPK10 (human) (UniProt P53779)"}, "MAPKAPK5 (human)": {"target": "MAPKAPK5 (human) (UniProt Q8IW41)", "sequence (Q8IW41 whole entry, looked up)": "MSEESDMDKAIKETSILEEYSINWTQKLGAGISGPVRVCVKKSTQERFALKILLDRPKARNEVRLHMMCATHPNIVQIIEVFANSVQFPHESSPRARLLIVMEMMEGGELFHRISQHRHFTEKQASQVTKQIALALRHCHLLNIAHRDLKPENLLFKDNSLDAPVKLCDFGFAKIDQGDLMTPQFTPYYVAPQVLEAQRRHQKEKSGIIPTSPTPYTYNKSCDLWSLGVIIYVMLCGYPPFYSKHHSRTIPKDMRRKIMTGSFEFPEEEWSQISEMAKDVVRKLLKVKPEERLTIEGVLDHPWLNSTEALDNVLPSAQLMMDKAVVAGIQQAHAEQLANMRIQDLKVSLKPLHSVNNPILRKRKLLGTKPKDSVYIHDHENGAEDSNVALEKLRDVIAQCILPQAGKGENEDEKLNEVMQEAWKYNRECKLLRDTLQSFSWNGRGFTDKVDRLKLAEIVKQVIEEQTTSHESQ"}, "[3]": {"test_system": "OXSR1 (human), O95747 [T185E]", "sequence (O95747 whole entry T185E, looked up)": "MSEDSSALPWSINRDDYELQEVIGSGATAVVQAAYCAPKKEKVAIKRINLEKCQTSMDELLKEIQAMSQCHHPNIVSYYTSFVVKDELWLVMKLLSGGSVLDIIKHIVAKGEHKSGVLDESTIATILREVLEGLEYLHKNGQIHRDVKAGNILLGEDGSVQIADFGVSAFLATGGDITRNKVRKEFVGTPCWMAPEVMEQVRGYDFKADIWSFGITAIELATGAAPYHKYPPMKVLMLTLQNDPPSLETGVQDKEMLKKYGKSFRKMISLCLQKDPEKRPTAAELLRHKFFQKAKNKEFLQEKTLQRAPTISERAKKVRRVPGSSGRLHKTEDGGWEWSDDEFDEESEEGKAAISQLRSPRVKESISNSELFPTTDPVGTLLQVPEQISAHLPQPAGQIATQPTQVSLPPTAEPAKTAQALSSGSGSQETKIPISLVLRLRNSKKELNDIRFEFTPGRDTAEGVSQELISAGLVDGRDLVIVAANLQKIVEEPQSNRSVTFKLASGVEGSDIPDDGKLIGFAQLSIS"}, "PAK6 (human)": {"target": "PAK6 (human) (UniProt Q9NQU5)"}, "PDPK1 (human)": {"target": "PDPK1 (human) (UniProt O15530)", "conditions": "compound 1.0 µM"}, "PIM3 (human)": {"target": "PIM3 (human) (UniProt Q86V86)"}, "PRKCZ (human)": {"target": "PRKCZ (human) (UniProt Q05513)"}, "SIK3 (human)": {"target": "SIK3 (human) (UniProt Q9Y2K2)"}, "SRC (human)": {"target": "SRC (human) (UniProt P12931)"}, "STK11 (human)": {"target": "STK11 (human) (UniProt Q15831)"}, "STK33 (human)": {"target": "STK33 (human) (UniProt Q9BYT3)"}, "TBK1 (human)": {"target": "TBK1 (human) (UniProt Q9UHD2)"}, "TTBK1 (human)": {"target": "TTBK1 (human) (UniProt Q5TCY1)", "sequence (Q5TCY1 whole entry, looked up)": "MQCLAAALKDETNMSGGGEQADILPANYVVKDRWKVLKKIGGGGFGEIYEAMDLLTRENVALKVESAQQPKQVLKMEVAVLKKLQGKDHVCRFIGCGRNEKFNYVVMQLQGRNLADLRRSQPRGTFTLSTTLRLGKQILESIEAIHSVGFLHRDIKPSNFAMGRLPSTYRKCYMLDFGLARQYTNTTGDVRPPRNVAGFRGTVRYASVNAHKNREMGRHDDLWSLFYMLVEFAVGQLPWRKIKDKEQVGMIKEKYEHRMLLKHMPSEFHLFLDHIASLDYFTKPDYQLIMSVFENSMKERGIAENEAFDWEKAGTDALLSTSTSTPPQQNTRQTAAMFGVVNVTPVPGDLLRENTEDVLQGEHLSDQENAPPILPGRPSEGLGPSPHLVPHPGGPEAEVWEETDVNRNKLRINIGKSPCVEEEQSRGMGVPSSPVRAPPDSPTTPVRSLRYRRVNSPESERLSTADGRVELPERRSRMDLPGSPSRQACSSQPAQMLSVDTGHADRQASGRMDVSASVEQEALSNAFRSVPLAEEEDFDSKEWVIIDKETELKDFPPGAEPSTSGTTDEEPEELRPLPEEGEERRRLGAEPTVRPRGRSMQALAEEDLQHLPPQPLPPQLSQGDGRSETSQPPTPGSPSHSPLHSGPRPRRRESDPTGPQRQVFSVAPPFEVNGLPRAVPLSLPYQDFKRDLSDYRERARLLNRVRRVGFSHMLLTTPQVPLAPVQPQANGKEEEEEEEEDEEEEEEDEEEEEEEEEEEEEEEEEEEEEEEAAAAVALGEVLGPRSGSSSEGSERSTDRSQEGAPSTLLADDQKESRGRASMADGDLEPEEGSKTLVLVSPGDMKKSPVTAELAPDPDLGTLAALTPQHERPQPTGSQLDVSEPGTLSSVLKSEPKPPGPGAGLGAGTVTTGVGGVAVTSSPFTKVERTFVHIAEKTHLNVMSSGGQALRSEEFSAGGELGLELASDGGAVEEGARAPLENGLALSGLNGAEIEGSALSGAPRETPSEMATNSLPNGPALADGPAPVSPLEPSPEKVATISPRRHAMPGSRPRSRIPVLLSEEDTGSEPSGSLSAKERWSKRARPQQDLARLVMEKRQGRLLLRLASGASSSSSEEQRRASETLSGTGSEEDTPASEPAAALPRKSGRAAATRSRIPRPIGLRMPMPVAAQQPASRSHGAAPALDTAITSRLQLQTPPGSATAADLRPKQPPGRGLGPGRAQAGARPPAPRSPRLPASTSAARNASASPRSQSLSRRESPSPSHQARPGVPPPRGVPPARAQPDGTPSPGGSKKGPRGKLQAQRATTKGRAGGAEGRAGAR"}, "TTBK2 (human)": {"target": "TTBK2 (human) (UniProt Q6IQ55)", "sequence (Q6IQ55 whole entry, looked up)": "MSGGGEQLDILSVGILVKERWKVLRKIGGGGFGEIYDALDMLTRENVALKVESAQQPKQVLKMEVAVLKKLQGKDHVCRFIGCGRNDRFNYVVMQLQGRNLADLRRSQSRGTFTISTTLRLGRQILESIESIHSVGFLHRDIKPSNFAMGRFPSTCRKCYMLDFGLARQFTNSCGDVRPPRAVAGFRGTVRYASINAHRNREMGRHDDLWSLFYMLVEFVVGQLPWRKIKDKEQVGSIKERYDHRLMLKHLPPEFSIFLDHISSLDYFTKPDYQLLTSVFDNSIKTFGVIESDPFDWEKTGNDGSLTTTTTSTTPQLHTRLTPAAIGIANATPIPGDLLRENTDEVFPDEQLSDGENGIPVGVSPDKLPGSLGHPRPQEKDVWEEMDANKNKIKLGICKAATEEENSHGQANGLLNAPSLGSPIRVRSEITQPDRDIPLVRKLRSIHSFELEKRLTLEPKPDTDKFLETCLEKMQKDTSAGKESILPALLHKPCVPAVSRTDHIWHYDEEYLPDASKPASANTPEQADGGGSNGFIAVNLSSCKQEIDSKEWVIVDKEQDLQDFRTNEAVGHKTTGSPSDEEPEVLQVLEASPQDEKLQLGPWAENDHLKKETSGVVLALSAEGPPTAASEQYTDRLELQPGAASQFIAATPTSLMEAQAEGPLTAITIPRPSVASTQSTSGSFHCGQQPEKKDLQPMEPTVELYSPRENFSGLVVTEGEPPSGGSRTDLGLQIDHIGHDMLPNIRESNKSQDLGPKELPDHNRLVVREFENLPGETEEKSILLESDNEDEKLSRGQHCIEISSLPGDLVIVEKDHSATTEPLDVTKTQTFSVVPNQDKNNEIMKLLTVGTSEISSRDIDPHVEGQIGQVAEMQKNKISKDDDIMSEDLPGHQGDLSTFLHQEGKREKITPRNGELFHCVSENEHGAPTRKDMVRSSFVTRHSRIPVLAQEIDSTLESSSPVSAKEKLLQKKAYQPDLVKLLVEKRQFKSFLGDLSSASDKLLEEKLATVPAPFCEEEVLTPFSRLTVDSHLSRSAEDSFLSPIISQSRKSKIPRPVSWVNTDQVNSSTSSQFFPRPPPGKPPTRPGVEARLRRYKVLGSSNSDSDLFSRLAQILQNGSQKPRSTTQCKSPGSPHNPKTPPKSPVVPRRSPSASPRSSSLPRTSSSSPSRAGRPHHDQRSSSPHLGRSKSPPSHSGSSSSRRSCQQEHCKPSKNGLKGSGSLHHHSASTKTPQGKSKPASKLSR"}, "ULK1 (human)": {"target": "ULK1 (human) (UniProt O75385)", "sequence (O75385 whole entry, looked up)": "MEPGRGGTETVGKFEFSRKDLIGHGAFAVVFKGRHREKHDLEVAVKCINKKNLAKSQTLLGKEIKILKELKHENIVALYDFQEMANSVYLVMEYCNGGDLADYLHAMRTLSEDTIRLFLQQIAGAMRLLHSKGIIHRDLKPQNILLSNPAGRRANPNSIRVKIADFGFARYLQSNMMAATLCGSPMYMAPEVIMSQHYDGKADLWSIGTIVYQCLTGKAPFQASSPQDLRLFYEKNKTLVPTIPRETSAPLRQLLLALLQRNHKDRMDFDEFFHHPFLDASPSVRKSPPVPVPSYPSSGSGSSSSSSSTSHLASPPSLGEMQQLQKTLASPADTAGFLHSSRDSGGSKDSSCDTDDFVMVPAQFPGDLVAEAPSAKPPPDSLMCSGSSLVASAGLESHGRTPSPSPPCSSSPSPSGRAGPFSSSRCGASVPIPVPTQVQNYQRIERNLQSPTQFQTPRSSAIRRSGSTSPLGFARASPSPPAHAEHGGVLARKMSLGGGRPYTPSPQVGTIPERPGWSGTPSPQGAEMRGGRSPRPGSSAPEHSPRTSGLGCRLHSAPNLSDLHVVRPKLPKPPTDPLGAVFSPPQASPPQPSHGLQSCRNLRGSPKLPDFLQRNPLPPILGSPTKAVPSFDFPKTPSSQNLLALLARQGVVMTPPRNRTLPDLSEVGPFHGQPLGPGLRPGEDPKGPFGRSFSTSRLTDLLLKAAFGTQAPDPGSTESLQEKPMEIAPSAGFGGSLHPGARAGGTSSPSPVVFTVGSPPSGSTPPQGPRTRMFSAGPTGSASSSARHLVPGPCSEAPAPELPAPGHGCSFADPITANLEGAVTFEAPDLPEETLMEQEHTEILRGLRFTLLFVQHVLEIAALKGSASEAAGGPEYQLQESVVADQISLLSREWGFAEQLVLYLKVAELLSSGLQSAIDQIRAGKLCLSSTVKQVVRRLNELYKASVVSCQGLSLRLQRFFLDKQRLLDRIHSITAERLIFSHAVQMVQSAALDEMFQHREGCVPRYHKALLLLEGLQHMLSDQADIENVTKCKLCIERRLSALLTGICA"}, "ZAP70 (human)": {"target": "ZAP70 (human) (UniProt P43403)"}}, "data": [{"compound": "CNc1nc(Nc2ccc(C(=O)N3CCOCC3)cc2OC)ncc1Cl", "values": [{"measurement": "residual activity", "setting": "ABL1 (human); compound 1.0 µM", "result": 84, "unit": "%"}, {"measurement": "residual activity", "setting": "ABL1 (human); compound 10.0 µM", "result": 86, "unit": "%"}, {"measurement": "residual activity", "setting": "[1]; compound 1.0 µM", "result": 53, "unit": "%"}, {"measurement": "residual activity", "setting": "[1]; compound 10.0 µM", "result": 85, "unit": "%"}, {"measurement": "residual activity", "setting": "[2]; compound 1.0 µM", "result": 95, "unit": "%"}, {"measurement": "residual activity", "setting": "[2]; compound 10.0 µM", "result": 64, "unit": "%"}, {"measurement": "residual activity", "setting": "AURKA (human); compound 1.0 µM", "result": 56, "unit": "%"}, {"measurement": "residual activity", "setting": "AURKA (human); compound 10.0 µM", "result": 45, "unit": "%"}, {"measurement": "residual activity", "setting": "BRSK1 (human); compound 1.0 µM", "result": 59, "unit": "%"}, {"measurement": "residual activity", "setting": "BRSK1 (human); compound 10.0 µM", "result": 78, "unit": "%"}, {"measurement": "residual activity", "setting": "BTK (human); compound 1.0 µM", "result": 83, "unit": "%"}, {"measurement": "residual activity", "setting": "BTK (human); compound 10.0 µM", "result": 88, "unit": "%"}, {"measurement": "residual activity", "setting": "CHEK1 (human); compound 1.0 µM", "result": 65, "unit": "%"}, {"measurement": "residual activity", "setting": "CHEK1 (human); compound 10.0 µM", "result": 45, "unit": "%"}, {"measurement": "residual activity", "setting": "CaMK1 (human); compound 1.0 µM", "result": 85, "unit": "%"}, {"measurement": "residual activity", "setting": "CaMK1 (human); compound 10.0 µM", "result": 66, "unit": "%"}, {"measurement": "residual activity", "setting": "DYRK1A (human)", "result": 79, "unit": "%"}, {"measurement": "residual activity", "setting": "DYRK3 (human); compound 1.0 µM", "result": 84, "unit": "%"}, {"measurement": "residual activity", "setting": "DYRK3 (human); compound 10.0 µM", "result": 76, "unit": "%"}, {"measurement": "residual activity", "setting": "EEF2K (human); compound 1.0 µM", "result": 83, "unit": "%"}, {"measurement": "residual activity", "setting": "EEF2K (human); compound 10.0 µM", "result": 86, "unit": "%"}, {"measurement": "residual activity", "setting": "EIF2AK3 (human); compound 1.0 µM", "result": 99, "unit": "%"}, {"measurement": "residual activity", "setting": "EIF2AK3 (human); compound 10.0 µM", "result": 97, "unit": "%"}, {"measurement": "residual activity", "setting": "EPHB2 (human); compound 1.0 µM", "result": 105, "unit": "%"}, {"measurement": "residual activity", "setting": "EPHB2 (human); compound 10.0 µM", "result": 103, "unit": "%"}, {"measurement": "residual activity", "setting": "GCK (human); compound 1.0 µM", "result": 108, "unit": "%"}, {"measurement": "residual activity", "setting": "GCK (human); compound 10.0 µM", "result": 79, "unit": "%"}, {"measurement": "residual activity", "setting": "MAP3K5 (human)", "result": 54, "unit": "%"}, {"measurement": "residual activity", "setting": "MAP3K9 (human); compound 1.0 µM", "result": 38, "unit": "%"}, {"measurement": "residual activity", "setting": "MAP3K9 (human); compound 10.0 µM", "result": 18, "unit": "%"}, {"measurement": "residual activity", "setting": "MAPK1 (human); compound 1.0 µM", "result": 79, "unit": "%"}, {"measurement": "residual activity", "setting": "MAPK1 (human); compound 10.0 µM", "result": 69, "unit": "%"}, {"measurement": "residual activity", "setting": "MAPK10 (human); compound 1.0 µM", "result": 60, "unit": "%"}, {"measurement": "residual activity", "setting": "MAPK10 (human); compound 10.0 µM", "result": 29, "unit": "%"}, {"measurement": "residual activity", "setting": "MAPKAPK5 (human); compound 1.0 µM", "result": 91, "unit": "%"}, {"measurement": "residual activity", "setting": "MAPKAPK5 (human); compound 10.0 µM", "result": 44, "unit": "%"}, {"measurement": "residual activity", "setting": "[3]; compound 1.0 µM", "result": 108, "unit": "%"}, {"measurement": "residual activity", "setting": "[3]; compound 10.0 µM", "result": 82, "unit": "%"}, {"measurement": "residual activity", "setting": "PAK6 (human); compound 1.0 µM", "result": 90, "unit": "%"}, {"measurement": "residual activity", "setting": "PAK6 (human); compound 10.0 µM", "result": 98, "unit": "%"}, {"measurement": "residual activity", "setting": "PDPK1 (human)", "result": 102, "unit": "%"}, {"measurement": "residual activity", "setting": "PIM3 (human); compound 1.0 µM", "result": 77, "unit": "%"}, {"measurement": "residual activity", "setting": "PIM3 (human); compound 10.0 µM", "result": 72, "unit": "%"}, {"measurement": "residual activity", "setting": "PRKCZ (human); compound 1.0 µM", "result": 99, "unit": "%"}, {"measurement": "residual activity", "setting": "PRKCZ (human); compound 10.0 µM", "result": 101, "unit": "%"}, {"measurement": "residual activity", "setting": "SIK3 (human); compound 1.0 µM", "result": 93, "unit": "%"}, {"measurement": "residual activity", "setting": "SIK3 (human); compound 10.0 µM", "result": 82, "unit": "%"}, {"measurement": "residual activity", "setting": "SRC (human); compound 1.0 µM", "result": 84, "unit": "%"}, {"measurement": "residual activity", "setting": "SRC (human); compound 10.0 µM", "result": 79, "unit": "%"}, {"measurement": "residual activity", "setting": "STK11 (human); compound 1.0 µM", "result": 92, "unit": "%"}, {"measurement": "residual activity", "setting": "STK11 (human); compound 10.0 µM", "result": 90, "unit": "%"}, {"measurement": "residual activity", "setting": "STK33 (human); compound 1.0 µM", "result": 61, "unit": "%"}, {"measurement": "residual activity", "setting": "STK33 (human); compound 10.0 µM", "result": 28, "unit": "%"}, {"measurement": "residual activity", "setting": "TBK1 (human); compound 1.0 µM", "result": 86, "unit": "%"}, {"measurement": "residual activity", "setting": "TBK1 (human); compound 10.0 µM", "result": 42, "unit": "%"}, {"measurement": "residual activity", "setting": "TTBK1 (human); compound 1.0 µM", "result": 88, "unit": "%"}, {"measurement": "residual activity", "setting": "TTBK1 (human); compound 10.0 µM", "result": 91, "unit": "%"}, {"measurement": "residual activity", "setting": "TTBK2 (human); compound 1.0 µM", "result": 115, "unit": "%"}, {"measurement": "residual activity", "setting": "TTBK2 (human); compound 10.0 µM", "result": 97, "unit": "%"}, {"measurement": "residual activity", "setting": "ULK1 (human); compound 1.0 µM", "result": 62, "unit": "%"}, {"measurement": "residual activity", "setting": "ULK1 (human); compound 10.0 µM", "result": 85, "unit": "%"}, {"measurement": "residual activity", "setting": "ZAP70 (human); compound 1.0 µM", "result": 97, "unit": "%"}, {"measurement": "residual activity", "setting": "ZAP70 (human); compound 10.0 µM", "result": 81, "unit": "%"}]}]}
